In the Deep4Chem optical property database:
“And” between values parts separate entries of the source, which are not always exact repeats. Identical values can stand only once. Values belong to the compound of their own block, whether it stands above or below them.

Test: solvent given as SMILES

- absorption maximum (in ClC(Cl)Cl): 403 nm
Structure (SMILES): C(=N\c1ccc(-c2cn3nc(-c4cccs4)sc3n2)cc1)/c1ccc2ccc3cccc4ccc1c2c34

- absorption maximum (in CCO): 373 nm
Structure (SMILES): CC(C)(C)Nc1cc2sc3cc(NC(C)(C)C)c(F)cc3c(=O)c2cc1F

- absorption maximum (in CO): 276 nm
Structure (SMILES): N#Cc1c(-n2nnc3ccc(Cl)cc32)n([C@H]2C[C@H](O)[C@@H](CO)O2)c2ncnc(N)c12

- absorption maximum (in C1CCOC1): 436 nm
Structure (SMILES): COc1cc(/C=C2\C=C(c3ccccc3)C=C2c2ccccc2)cc(OC)c1

- absorption maximum (in CCOC(C)=O): 383 nm
Structure (SMILES): CCn1ncc2c3c(C#N)c4c5ccccc5n(CC)c4nc3ccc21

- absorption maximum (in ClCCl): 380 nm
Structure (SMILES): C[Si]1(C)O[Si](C)(C)c2cc3c(-c4ccccc4F)c4cc(Cl)ccc4nc3cc21

- absorption maximum (in ClC(Cl)Cl): 350 nm
Structure (SMILES): CC(C)(C)c1ccc2c(c1)oc1nc3oc4ccc(-n5c6ccccc6c6ccccc65)cc4c3cc12

- absorption maximum (in CCCCCC): 442 nm
- absorption maximum (in CO): 448 nm
Structure (SMILES): O=C1C=C(Nc2ccccc2F)C(=O)c2ccccc21

- absorption maximum (in ClCCl): 639 nm
Structure (SMILES): COc1c2ccccc2c(OC)c2c(C#C[Si](C(C)C)(C(C)C)C(C)C)c3cc4sccc4cc3c(C#C[Si](C(C)C)(C(C)C)C(C)C)c12

- absorption maximum (in ClCCl): 322 nm
Structure (SMILES): CCOC(=O)c1c(-c2c(Cl)c3ccccc3oc2=O)nn(-c2ccc(Br)cc2)c1C(=O)OCC

- absorption maximum (in CC#N): 252 nm
- absorption maximum (in CCCCCC): 252 nm
Structure (SMILES): COc1ccc(-n2cccc2)cc1

- absorption maximum (in C1COCCO1): 398 nm
- absorption maximum (in CC#N): 397 nm
- absorption maximum (in CCCCOCCCC): 398 nm
- absorption maximum (in CCOC(C)=O): 396 nm
Structure (SMILES): Clc1nc(Nc2ccccc2)nc(Nc2ccc3cc4ccccc4cc3c2)n1

- absorption maximum (in ClC(Cl)Cl): 381 nm
Structure (SMILES): CC[Si](C)(C)c1cc2ccc3cccc4ccc(c1C(=O)NC(C)(C)C)c2c34

- absorption maximum (in C1CCOC1): 403 nm
Structure (SMILES): CC(C)(C)c1ccc(C2=C(c3ccc(N4c5ccccc5C(C)(C)c5ccccc54)cc3)S(=O)(=O)c3c2sc(-c2ccc(N4c5ccccc5C(C)(C)c5ccccc54)cc2)c3-c2ccc(C(C)(C)C)cc2)cc1

- absorption maximum (in ClCCl): 394 nm
Structure (SMILES): CC(C)(C)c1ccc(-c2cc(-c3ccc(-c4cc(-c5ccc(C(C)(C)C)cc5)c(C(=O)NCc5ccccc5)s4)s3)sc2C(=O)NCc2ccccc2)cc1

- absorption maximum (in ClC(Cl)Cl): 425 nm
Structure (SMILES): c1cc2ccc3[nH]c4ccc5cccc6c(c1)c2c3c4c56

- absorption maximum (in CC#N): 576 nm
- absorption maximum (in CCO): 570 nm
- absorption maximum (in ClCCl): 588 nm
- absorption maximum (in O): 556 nm
Structure (SMILES): C=CCNc1ccc2ccc3oc4cc(=[N+]5CCCC5)ccc-4nc3c2c1

- absorption maximum (in C1CCOC1): 445 nm
Structure (SMILES): Cc1cc(C)c([B-]2(c3c(C)cc(C)cc3C)[O+]=P(c3ccccc3)(c3ccccc3)c3cc(-c4ccc(N(C)C)cc4)sc3-c3sc(-c4ccc(N(C)C)cc4)cc32)c(C)c1

- absorption maximum (in ClCCl): 352 nm
Structure (SMILES): Cc1cccc2nc(-c3cc(=O)c(OCc4ccccc4)co3)c(NC3CCCCC3)n12

- absorption maximum (in ClC(Cl)Cl): 390 nm
Structure (SMILES): COc1cc(OC)c2c(c1)c1cc3oc(=O)cc(C)c3cc1c1cc(OC)cc(OC)c12

- absorption maximum (in CS(C)=O): 365 nm
Structure (SMILES): COc1cc2sc3nc(-c4ccccc4OC)sc3c2cc1OC

- absorption maximum (in ClCCl): 495 nm
Structure (SMILES): CCc1cccc(CC)c1-c1c2ccccc2c(-c2c(CC)cccc2CC)c2cc3ccccc3cc12

- absorption maximum (in ClC(Cl)Cl): 437 nm
Structure (SMILES): Cc1c2c(c(C)c3ccccc13)C1=C2C=CC2Nc3ccccc3NC12 (stereo not drawn)

- absorption maximum (in C1CCOC1): 577 nm
Structure (SMILES): Cc1ccc(C2=C3C=CC(Sc4ccccc4)=[N+]3[B-](F)(F)n3c(Sc4ccccc4)ccc32)cc1

Second part, the compound before the results:

Structure (SMILES): CCC(=O)c1ccc2cc(N(C)C)ccc2c1
- absorption maximum (in C1CCCCC1): 342 nm and 343 nm
- absorption maximum (in C1CCOC1): 346 nm
- absorption maximum (in C1COCCO1): 348 nm
- absorption maximum (in CC#N): 347 nm and 368 nm
- absorption maximum (in CC(C)=O): 350 nm
- absorption maximum (in CC(C)O): 367 nm
- absorption maximum (in CCC(C)=O): 367 nm
- absorption maximum (in CCCCCC): 338 nm
- absorption maximum (in CCCCCCC): 343 nm
- absorption maximum (in CCCCCCCCO): 360 nm
- absorption maximum (in CCN(CC)CC): 343 nm
- absorption maximum (in CCO): 362 nm and 369 nm
- absorption maximum (in CCOC(C)=O): 352 nm
- absorption maximum (in CN(C)C=O): 350 nm
- absorption maximum (in CO): 362 nm
- absorption maximum (in CS(C)=O): 359 nm and 369 nm
- absorption maximum (in Cc1ccccc1): 345 nm and 349 nm
- absorption maximum (in ClC(Cl)Cl): 358 nm
- absorption maximum (in ClCCl): 355 nm and 358 nm
- absorption maximum (in Clc1ccccc1): 254 nm and 354 nm
- absorption maximum (in O): 364 nm
- absorption maximum (in OCC(O)CO): 370 nm
- absorption maximum (in OCCO): 375 nm
- absorption maximum (in c1ccccc1): 355 nm

Structure (SMILES): N#Cc1ccc(-n2c3ccccc3c3c2c2ccccc2n3-c2ccccc2)cc1
- absorption maximum (in Cc1ccccc1): 359 nm

Structure (SMILES): N#Cc1c(N2CCCC2)cc(-c2ccccc2)c2c1C(=O)c1ccccc1-2
- absorption maximum (in C1CCOC1): 358 nm

Structure (SMILES): Cc1nc2c(ccc3ccccc32)oc1=O
- absorption maximum (in c1ccccc1): 364 nm

Structure (SMILES): c1ccc(-n2c(-c3cccc4ccccc34)nc3c4ccccc4c4ccccc4c32)cc1
- absorption maximum (in Cc1ccccc1): 356 nm

Structure (SMILES): CC(=O)Nc1cccc2c1C#Cc1c(cccc1C(=O)N(C)C)OCCCO2
- absorption maximum (in CC#N): 315 nm
- absorption maximum (in ClCCl): 318 nm

Structure (SMILES): Cc1cc(/N=C/c2cc(S(=O)(=O)[O][Na])ccc2O)c(/N=C/c2cc(S(=O)(=O)[O][Na])ccc2O)cc1C
- absorption maximum (in O): 371 nm

Structure (SMILES): CC[n+]1c(-c2ccccc2)c2cc(-n3cccc3)ccc2c2ccc(N)cc21
- absorption maximum (in O): 462 nm

Structure (SMILES): COc1ccc(-c2cc3c(ccc(=O)n3C)s2)cc1
- absorption maximum (in CC#N): 376 nm
- absorption maximum (in ClCCl): 378 nm

Structure (SMILES): COc1ccc(C2=N/C(=C\c3ccc(C#N)cc3)C(=O)O2)cc1OC
- absorption maximum (in C1COCCO1): 393 nm

Structure (SMILES): CCn1c2ccccc2c2cc(/C=C/c3cc(/C=C/c4ccc5c(c4)c4ccccc4n5CC)[n+](CCCS(=O)(=O)[O-])c(/C=C/c4ccc5c(c4)c4ccccc4n5CC)c3)ccc21
- absorption maximum (in C1CCOC1): 464 nm
- absorption maximum (in CC#N): 458 nm
- absorption maximum (in CC(C)=O): 462 nm
- absorption maximum (in Cc1ccccc1): 466 nm

Structure (SMILES): Cc1cc(=O)c2ccc(N)cc2o1
- absorption maximum (in C1CCOC1): 323 nm
- absorption maximum (in C1COCCO1): 314 nm
- absorption maximum (in CC#N): 315 nm
- absorption maximum (in CC(C)O): 327 nm
- absorption maximum (in CCCCO): 329 nm
- absorption maximum (in CCCO): 329 nm
- absorption maximum (in CCOC(C)=O): 315 nm
- absorption maximum (in CN(C)C=O): 325 nm
- absorption maximum (in CO): 327 nm
- absorption maximum (in CS(C)=O): 326 nm
- absorption maximum (in ClC(Cl)Cl): 311 nm
- absorption maximum (in O): 322 nm

Structure (SMILES): c1ccc(-c2nc(-c3ccc(N4c5ccccc5C(c5ccccc5)(c5ccccc5)c5ccccc54)cc3)cc(-c3ccc(N4c5ccccc5C(c5ccccc5)(c5ccccc5)c5ccccc54)cc3)n2)cc1
- absorption maximum (in Cc1ccccc1): 373 nm

Structure (SMILES): c1ccc2c(-n3cnc4ccccc43)cccc2c1
- absorption maximum (in C1CCCCC1): 283 nm
- absorption maximum (in C1CCOC1): 282 nm
- absorption maximum (in CC#N): 286 nm
- absorption maximum (in CCO): 284 nm
- absorption maximum (in CCOC(C)=O): 283 nm
- absorption maximum (in CCOCC): 284 nm
- absorption maximum (in CO): 284 nm
- absorption maximum (in Cc1ccccc1): 282 nm
- absorption maximum (in ClC(Cl)Cl): 285 nm

Structure (SMILES): CCCC1(CCC)c2cc(-c3ccco3)ccc2-c2ccc(-c3ccco3)cc21
- absorption maximum (in C1CCCCC1): 364 nm

Structure (SMILES): CCCCCCCC[Si](C)(C)c1cccc2ccccc12
- absorption maximum (in C1CCCCC1): 294 nm

Structure (SMILES): CC(=O)c1c(N[C@H](C(=O)O)C(C)C)c2ccc(N(C)C)cc2oc1=O
- absorption maximum (in ClCCl): 371 nm

Structure (SMILES): CN(C)c1ccc(N2c3c(sc4ccccc34)Sc3sc4ccccc4c32)cc1
- absorption maximum (in ClCCl): 309 nm

Structure (SMILES): C1=[N+](c2ccccc2)[B-](c2ccccc2)(c2ccccc2)Oc2c1ccc1c3c(ccc21)C=[N+](c1ccccc1)[B-](c1ccccc1)(c1ccccc1)O3
- absorption maximum (in Cc1ccccc1): 536 nm
- absorption maximum (in ClCCl): 529 nm

Structure (SMILES): Cc1cc(O)c(C(=O)/C=C/c2cccc(O)c2)c(=O)o1
- absorption maximum (in CC#N): 367 nm
- absorption maximum (in ClCCl): 374 nm

Structure (SMILES): Nc1cccc2c1C(=O)c1ccccc1-2
- absorption maximum (in C1CCCCC1): 407 nm
- absorption maximum (in CC#N): 420 nm
- absorption maximum (in CCO): 431 nm
- absorption maximum (in c1ccccc1): 416 nm

Structure (SMILES): COc1ccc(-c2c3nc(c(-c4ccc(OC)cc4)c4ccc([nH]4)c(-c4ccc(OC)cc4)c4nc(c(-c5ccc(OC)cc5)c5ccc2[nH]5)C=C4N2CCOCC2)C=C3)cc1
- absorption maximum (in CS(C)=O): 660 nm

Structure (SMILES): CCC1=C(C)C(=O)n2c1cc1c(C)c(CC)c(C)n1c2=O
- absorption maximum (in CC#N): 423 nm
- absorption maximum (in CC(C)=O): 422 nm
- absorption maximum (in CO): 428 nm
- absorption maximum (in CS(C)=O): 428 nm
- absorption maximum (in ClC(Cl)Cl): 432 nm
- absorption maximum (in c1ccccc1): 428 nm

Structure (SMILES): Cc1ccc2c(c1)nc1c(=O)n(C)c(=O)nc-1n2C
- absorption maximum (in CC#N): 446 nm

Structure (SMILES): c1ccc(-c2c3ccccc3c(-c3ncccn3)c3ccccc23)cc1
- absorption maximum (in CCO): 390 nm
- absorption maximum (in ClCCl): 393 nm

Structure (SMILES): Cc1ccc(-c2ccc(/C=C/c3ccc(C#N)cc3)cn2)nc1
- absorption maximum (in CC#N): 343 nm

Structure (SMILES): CC1(C)C2=C(c3ccccc31)S(=O)(=O)c1ccccc12
- absorption maximum (in ClCCl): 355 nm

Structure (SMILES): Nc1cc([NH3+])cc(-c2nc3ccccc3s2)c1
- absorption maximum (in O): 300 nm

Structure (SMILES): CC(C)(C)OC(=O)NCCCC(=O)OCc1ccc2c3cccc4cccc(c5cccc1c52)c43
- absorption maximum (in CCO): 439 nm

Structure (SMILES): CCCC1=Cc2nc1ccc1[nH]c(cc1CCC)c1nc(c(NC(C)=O)cc3[nH]c2cc3CCC)C(CCC)=C1
- absorption maximum (in Cc1ccccc1): 639 nm

Structure (SMILES): Cn1cc(-c2nc3ccccc3nc2/C=C/N2CCCC2)c2ccccc21
- absorption maximum (in CC#N): 440 nm

Structure (SMILES): C/C(=N\Nc1ccc(C#N)cc1)c1cccc(/C(C)=N/Nc2ccc(C#N)cc2)c1
- absorption maximum (in CC#N): 355 nm
- absorption maximum (in CCCCCC): 359 nm
- absorption maximum (in CO): 346 nm
- absorption maximum (in CS(C)=O): 366 nm
- absorption maximum (in ClC(Cl)Cl): 353 nm

Structure (SMILES): CC1=[N+]2C(=C(c3ccccc3)c3c4c(c(C)n3[B-]2(F)F)CCc2ccccc2-4)C2=C1CCc1ccccc12
- absorption maximum (in CC#N): 565 nm

Structure (SMILES): CN(C)c1nc(N)c2nc(C#N)n(Cc3ccccc3)c2n1
- absorption maximum (in C1COCCO1): 339 nm
- absorption maximum (in CC#N): 338 nm
- absorption maximum (in CO): 338 nm
- absorption maximum (in ClCCl): 336 nm

Structure (SMILES): Brc1cnc(-c2ccncc2)s1
- absorption maximum (in CO): 306 nm

Structure (SMILES): CCC(C)(C)c1ccc(-c2ccc(-c3ccc(C(C)(C)CC)cc3)cc2)cc1
- absorption maximum (in C1COCCO1): 289 nm
